Data from ChEMBL document CHEMBL1909046, “DrugMatrix in vitro pharmacology data”.

Tests used:
[1] = biological target: 5-hydroxytryptamine receptor 4 (Cavia porcellus, UniProt O70528); assay type: cell membranes, Dunkin-Hartley, Striatum, Membrane; note: in other assays of this panel Not Active means under 50% inhibition at 10 µM
[2] = DRUGMATRIX: Purinergic P2X radioligand binding (ligand: [3H] alpha, beta-Methylene-ATP); assay type: cell membranes, Oryctolagus cuniculus, New Zealand albino, Urinary bladder, Membrane; settings: Not Active = under 50% inhibition at 10 µM
[3] = DRUGMATRIX: Glutamate, AMPA radioligand binding (ligand: [3H] AMPA); assay type: cell membranes, Rattus norvegicus, Wistar, Cerebral cortex, Membrane; settings: Not Active = under 50% inhibition at 10 µM
[4] = biological target: T1, Cysteinyl leukotriene receptor 1 (Homo sapiens, UniProt Q9Y271); assay type: cell membranes, Membrane; settings: cho-k1; note: in other assays of this panel Not Active means under 50% inhibition at 10 µM
T1 sequence (Q9Y271 whole entry): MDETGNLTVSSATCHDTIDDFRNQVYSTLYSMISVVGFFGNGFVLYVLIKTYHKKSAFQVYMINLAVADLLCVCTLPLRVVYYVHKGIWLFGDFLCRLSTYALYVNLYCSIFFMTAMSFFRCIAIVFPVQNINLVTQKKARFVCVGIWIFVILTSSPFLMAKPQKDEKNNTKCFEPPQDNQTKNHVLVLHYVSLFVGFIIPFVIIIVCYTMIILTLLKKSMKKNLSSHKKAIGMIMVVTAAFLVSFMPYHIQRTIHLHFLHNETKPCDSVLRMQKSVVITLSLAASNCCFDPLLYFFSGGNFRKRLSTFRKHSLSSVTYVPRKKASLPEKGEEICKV

[5] = DRUGMATRIX: Imidazoline I2, Central radioligand binding (ligand: [3H] Idazoxan); assay type: cell membranes, Rattus norvegicus, Wistar, Cerebral cortex, Membrane; settings: Not Active = under 50% inhibition at 10 µM
Interstitial collagenase = biological target: T2, Interstitial collagenase (Homo sapiens, UniProt P03956); experiment: biochemical; assay type: tissue-based, Rheumatoid synovial fibroblasts;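 note: MMP-1 enzyme inhibition assay using a peptide substrate; in other assays of this panel Not Active means under 50% inhibition at 10 µM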
T2 sequence (P03956 whole entry): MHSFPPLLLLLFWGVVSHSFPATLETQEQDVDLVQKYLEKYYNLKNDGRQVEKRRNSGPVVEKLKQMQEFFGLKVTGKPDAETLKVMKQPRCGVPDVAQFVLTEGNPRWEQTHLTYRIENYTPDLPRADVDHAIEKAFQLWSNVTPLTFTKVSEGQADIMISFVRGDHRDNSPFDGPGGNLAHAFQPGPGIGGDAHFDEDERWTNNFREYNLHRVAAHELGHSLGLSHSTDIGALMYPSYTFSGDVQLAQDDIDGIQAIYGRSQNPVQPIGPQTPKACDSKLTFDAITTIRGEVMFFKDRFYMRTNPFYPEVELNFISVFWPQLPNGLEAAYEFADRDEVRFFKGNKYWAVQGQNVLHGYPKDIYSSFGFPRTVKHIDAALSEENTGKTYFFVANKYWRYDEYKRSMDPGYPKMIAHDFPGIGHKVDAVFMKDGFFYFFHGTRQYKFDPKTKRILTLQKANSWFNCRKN

[6] = DRUGMATRIX: Glutamate, NMDA, Agonism radioligand binding (ligand: [3H] CGP-39653); assay type: cell membranes, Rattus norvegicus, Wistar, Cerebral cortex, Membrane; settings: Not Active = under 50% inhibition at 10 µM

5-hydroxytryptamine receptor 4, sequence (O70528 whole entry): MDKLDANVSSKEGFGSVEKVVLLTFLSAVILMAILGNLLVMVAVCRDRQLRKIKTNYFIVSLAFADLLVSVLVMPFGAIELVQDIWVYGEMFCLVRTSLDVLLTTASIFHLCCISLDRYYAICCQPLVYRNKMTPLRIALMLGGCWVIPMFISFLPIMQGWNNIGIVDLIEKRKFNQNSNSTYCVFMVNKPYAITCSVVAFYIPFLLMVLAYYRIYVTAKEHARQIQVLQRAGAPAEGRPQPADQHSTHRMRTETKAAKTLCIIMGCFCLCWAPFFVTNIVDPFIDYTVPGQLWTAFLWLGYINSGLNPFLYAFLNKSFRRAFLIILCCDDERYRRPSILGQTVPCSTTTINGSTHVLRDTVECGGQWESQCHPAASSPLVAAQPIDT

NNc1nncc2ccccc12 [HYDRALAZINE]
Not Active: IC50 [1] | IC50 [2] | Ki [2] | IC50 [3] | Ki [3] | IC50 [4] | IC50 [5] | Ki [5] | IC50 (Interstitial collagenase) | IC50 [6] | Ki [6]

CC(=O)[C@@]1(O)CC[C@H]2[C@@H]3CCC4=CC(=O)CC[C@]4(C)[C@H]3CC[C@@]21C [HYDROXYPROGESTERONE]
Not Active: IC50 [1] | IC50 [2] | Ki [2] | IC50 [3] | Ki [3] | IC50 [4] | IC50 [5] | Ki [5] | IC50 (Interstitial collagenase) | IC50 [6] | Ki [6]

COC1=C(OC)C(=O)C(CCCCCCCCCCO)=C(C)C1=O [IDEBENONE]
Not Active: IC50 [1] | IC50 [2] | Ki [2] | IC50 [3] | Ki [3] | IC50 [4] | IC50 [5] | Ki [5] | IC50 (Interstitial collagenase) | IC50 [6] | Ki [6]

CC(C)NNC(=O)c1ccncc1 [IPRONIAZID]
Not Active: IC50 [1] | IC50 [2] | Ki [2] | IC50 [3] | Ki [3] | IC50 [4] | IC50 [5] | Ki [5] | IC50 (Interstitial collagenase) | IC50 [6] | Ki [6]

Cc1c(OCC(F)(F)F)ccnc1C[S+]([O-])c1nc2ccccc2[nH]1 (stereo unspecified) [LANSOPRAZOLE]
Not Active: IC50 [1] | IC50 [2] | Ki [2] | IC50 [3] | Ki [3] | IC50 [4] | IC50 [5] | Ki [5] | IC50 (Interstitial collagenase) | IC50 [6] | Ki [6]

O=c1cc(N2CCOCC2)oc2c(-c3ccccc3)cccc12 [LY-294002]
Not Active: IC50 [1] | IC50 [2] | Ki [2] | IC50 [3] | Ki [3] | IC50 [4] | IC50 [5] | Ki [5] | IC50 (Interstitial collagenase) | IC50 [6] | Ki [6]

COc1ccc2[nH]cc(CCNC(C)=O)c2c1 [MELATONIN]
Not Active: IC50 [1] | IC50 [2] | Ki [2] | IC50 [3] | Ki [3] | IC50 [4] | IC50 [5] | Ki [5] | IC50 (Interstitial collagenase) | IC50 [6] | Ki [6]

NC(=O)C[S+]([O-])C(c1ccccc1)c1ccccc1 (stereo unspecified) [MODAFINIL]
Not Active: IC50 [1] | IC50 [2] | Ki [2] | IC50 [3] | Ki [3] | IC50 [4] | IC50 [5] | Ki [5] | IC50 (Interstitial collagenase) | IC50 [6] | Ki [6]

CCN(CC)CCOCCC1=CCC2CC1C2(C)C (stereo unspecified) [MYRTECAINE]
Not Active: IC50 [1] | IC50 [2] | Ki [2] | IC50 [3] | Ki [3] | IC50 [4] | IC50 [5] | Ki [5] | IC50 (Interstitial collagenase) | IC50 [6] | Ki [6]

O=C(O)c1cccnc1Nc1cccc(C(F)(F)F)c1 [NIFLUMIC ACID]
Not Active: IC50 [1] | IC50 [2] | Ki [2] | IC50 [3] | Ki [3] | IC50 [4] | IC50 [5] | Ki [5] | IC50 (Interstitial collagenase) | IC50 [6] | Ki [6]

O=C(N/N=C/c1ccc([N+](=O)[O-])o1)c1cc([N+](=O)[O-])cc([N+](=O)[O-])c1O [NIFURSOL]
Not Active: IC50 [1] | IC50 [2] | Ki [2] | IC50 [3] | Ki [3] | IC50 [4] | IC50 [5] | Ki [5] | IC50 (Interstitial collagenase) | IC50 [6] | Ki [6]

COC(=O)Nc1nc2ccc(C(=O)c3cccs3)cc2[nH]1 [NOCODAZOLE]
Not Active: IC50 [1] | IC50 [2] | Ki [2] | IC50 [3] | Ki [3] | IC50 [4] | IC50 [5] | Ki [5] | IC50 (Interstitial collagenase) | IC50 [6] | Ki [6]

C#CC1(O)CC[C@H]2[C@@H]3CCC4=CC(=O)CC[C@@H]4[C@H]3CC[C@@]21CC (stereo partly specified) [NORGESTREL]
Not Active: IC50 [1] | IC50 [2] | Ki [2] | IC50 [3] | Ki [3] | IC50 [4] | IC50 [5] | Ki [5] | IC50 (Interstitial collagenase) | IC50 [6] | Ki [6]

COC(=O)Nc1nc2ccc([S+]([O-])c3ccccc3)cc2[nH]1 (stereo unspecified) [OXFENDAZOLE]
Not Active: IC50 [1] | IC50 [2] | Ki [2] | IC50 [3] | Ki [3] | IC50 [4] | IC50 [5] | Ki [5] | IC50 (Interstitial collagenase) | IC50 [6] | Ki [6]

CC(=O)O[C@H]1C(=O)[C@@]2(C)[C@H]([C@H](OC(=O)c3ccccc3)[C@]3(O)C[C@H](OC(=O)[C@H](O)[C@@H](NC(=O)c4ccccc4)c4ccccc4)C(C)=C1C3(C)C)[C@]1(OC(C)=O)CO[C@@H]1C[C@@H]2O [PACLITAXEL]
Not Active: IC50 [1] | IC50 [2] | Ki [2] | IC50 [3] | Ki [3] | IC50 [4] | IC50 [5] | Ki [5] | IC50 (Interstitial collagenase) | IC50 [6] | Ki [6]

C[n+]1ccc(-c2cc[n+](C)cc2)cc1.[Cl-].[Cl-] [PARAQUAT DICHLORIDE]
Not Active: IC50 [1] | IC50 [2] | Ki [2] | IC50 [3] | Ki [3] | IC50 [4] | IC50 [5] | Ki [5] | IC50 (Interstitial collagenase) | IC50 [6] | Ki [6]
